Data published in patent US9603821B2, “Inhibitor of τ protein phosphorylation” (NISHIZAKI BIOINFORMATION RESEARCH INSTITUTE, priority 2013, dated 2017).

How the values were obtained:
human recombinant PKCε = molecular target: T1, human recombinant PKCε (Homo sapiens, UniProt Q02156); assay: GSK-3β assay under cell-free conditions with PKCε; assay type: biochemical; conditions: FIG. 7
T1 construct: His; purchased Calbiochem
T1 sequence (Q02156 1-737): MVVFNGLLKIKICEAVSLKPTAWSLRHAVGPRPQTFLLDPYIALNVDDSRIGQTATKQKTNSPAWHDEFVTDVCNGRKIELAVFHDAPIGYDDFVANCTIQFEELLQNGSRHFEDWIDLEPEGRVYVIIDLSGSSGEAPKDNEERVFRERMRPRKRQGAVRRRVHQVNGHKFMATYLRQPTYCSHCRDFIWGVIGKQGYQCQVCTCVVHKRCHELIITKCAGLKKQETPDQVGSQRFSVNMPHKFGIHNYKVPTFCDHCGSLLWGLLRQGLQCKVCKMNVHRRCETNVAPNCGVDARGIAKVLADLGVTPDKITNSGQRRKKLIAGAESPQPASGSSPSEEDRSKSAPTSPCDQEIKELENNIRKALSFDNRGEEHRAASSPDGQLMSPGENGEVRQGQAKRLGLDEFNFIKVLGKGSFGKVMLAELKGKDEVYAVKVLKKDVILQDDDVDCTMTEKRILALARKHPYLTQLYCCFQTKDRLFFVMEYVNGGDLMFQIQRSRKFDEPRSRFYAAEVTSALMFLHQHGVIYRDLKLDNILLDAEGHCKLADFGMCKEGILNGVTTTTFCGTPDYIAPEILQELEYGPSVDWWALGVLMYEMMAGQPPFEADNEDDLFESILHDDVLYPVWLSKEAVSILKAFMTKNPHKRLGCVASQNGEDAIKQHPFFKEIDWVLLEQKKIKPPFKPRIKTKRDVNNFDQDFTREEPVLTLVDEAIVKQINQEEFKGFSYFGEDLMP
Method: Human recombinant GSK-3β (Sigma, St. Louis, Mo., USA) was reacted with His-tagged human recombinant PKCε (Calbiochem, San Diego, Calif., USA) under cell-free conditions in the presence or absence of a given concentration (1-100 μM) of DCP-LA, and with or without addition of GF109203X, in a culture medium containing 20 mM Tris-HCl (pH 7.5), 5 mM Mg-acetate, 12.5 mM glycerol 2-phosphate and 250 μM ATP at 30° C. for 20 min. The protein was separated by SDS-polyacrylamide gel electrophoresis (SDS-PAGE), and transferred on a polyvinylidene difluoride membrane. The blotting membrane was blocked with TBS-T [150 mM NaCl, 0.1% (v/v) Tween20 and 20 mM Tris, pH 7.5] containing 5% (w/v) BSA, and sequentially reacted with anti-serine 9 phosphorylated GSK-3β antibody (Cell Signaling Technology, Inc., Danvers, Mass., USA) or anti-GSK-3β antibody (Cell Signaling Technology, Inc., Danvers, Mass., USA). After washing, the membrane was reacted with horseradish peroxidase conjugated goat anti-mouse IgG antibody or goat anti-rabbit IgG antibody. The immunoreactivity was detected using ECL kit (GE Healthcare, Piscataway, N.J., USA), and visualized using a chemical luminescence detection system (chemiluminescence detection system; GE Healthcare).

5XFAD mouse = assay: Water maze test in 5XFAD mouse; assay type: in vivo; conditions: oral, 30 min before water maze test, daily, DCP-LA 1 mg/kg, galanthamine 2.5 mg/kg, FIG. 6
Excerpt: XFAD transgenic mouse is an animal model of Alzheimer's disease (AD), and contains five mutations of familial Alzheimer's disease (FAD) [Swedish, Florida and London mutations of human amyloid precursor protein (APP), and M146L and L286V mutations of presenilin (PS); Oakley H et al., J. Neurosci. 2006; 26: 10129-10140]. In 5XFAD mouse, Swedish mutation increases production of total amyloid β peptide (Aβ), and the remaining mutations particularly promote production of Aβ1-42.
5XFAD mouse was purchased from The Jackson Laboratory (Bar Harbor, Me., USA), and maintained by crossing with heterozygous transgenic mouse with B6/SJLF1 breeding stock. Non-transgenic wild-type litter-mate was used as a control. All experiments were performed at the age of 5.5-6.5 months.
A circular plastic water tank (diameter 90 cm, depth 36 cm) was used. The inside of the water tank was completely painted in white, and water containing White India ink was filled up to 20 cm from the bottom (22-25° C.). A platform (diameter 11 cm) painted in white was placed in water such that it was 1 cm below the water surface. The water tank was placed in a test room, and several marks seen by the mouse from the water tank were put thereon. During the test, the position of the marks was not changed. A platform was placed a predetermined position from the equal distance from the center and the end of the water tank, namely, center of one quadrant. At one of the randomly selected 3 points, the mouse was released facing the wall of the water tank, and the time necessary for evacuating on the platform (acquisition latency) was measured. When smoothly evacuated, the mouse was left on the platform for 10 seconds. […] The test was performed twice a day, and the second test was started at 30 seconds after the first test. The test was continuously performed for 8 days, and the mean (±SEM) of acquisition latency of continuous 2 days until the mouse reached the platform was calculated. After 7 days, the platform was removed and the time necessary for reaching the place where the platform was located (retention latency) was measured.
DCP-LA and galanthamine were dissolved in polyethylene glycol (PEG). DCP-LA, galanthamine and PEG were administered with an oral gavage needle 30 min before the water maze test.

Akt = Akt activation in rat hippocampus section, Western blotting; assay type: cell-based; conditions: 100 nM, 3 min, FIG. 3
Method: (§1) A rat hippocampus section (male Wister rat, 6-week-old, 400 μm) was incubated in an artificial cerebrospinal fluid (117 mM NaCl, 3.6 mM KCl, 1.2 mM NaH2PO4, 1.2 mM MgCl2, 2.5 mM CaCl2, 25 mM NaHCO3, and 11.5 mM glucose) oxygenated with 95% O2 and 5% CO2, in the presence or absence of DCP-LA (100 nM) at 34° C. for 3 min. In another experiment set, the section was incubated with Aβ1-42 (1 μM) for 3 hr in the presence or absence of DCP-LA (100 nM). After incubation, the section was homogenized by sonication in an ice-cooled cell lysis buffer containing 1% (v/v) protease inhibitor cocktail and 1% (v/v) phosphatase inhibitor cocktail, and the homogenate was centrifuged (3,000 rpm, 5 min, 4° C.). The protein concentration of the supernatant was measured using BCA protein assay kit (Thermo Fisher Scientific, Rockford, Ill., USA). The protein was separated by SDS-polyacrylamide gel electrophoresis (SDS-PAGE), and transferred onto polyvinylidene difluoride membranes. […]
(§2) After washing, the membranes were reacted with horseradish peroxidase-conjugated goat anti-mouse IgG antibody or goat anti-rabbit IgG antibody. The immunoreactivity was detected using ECL kit (GE Healthcare, Piscataway, N.J., USA), and visualized using a chemical luminescence detection system (chemiluminescence detection system; GE Healthcare).

Human PTP1B = molecular target: T2, Human PTP1B (Homo sapiens, UniProt P18031); assay: Assay of PTP1B activity under cell-free conditions (p-NPP dephosphorylation); assay type: biochemical; conditions: DCP-LA 1-100 μM, p-NPP 10 mM, FIG. 1
T2 construct: made in house; host or cells: E. coli BL21 (DE3)
T2 sequence (P18031 1-435): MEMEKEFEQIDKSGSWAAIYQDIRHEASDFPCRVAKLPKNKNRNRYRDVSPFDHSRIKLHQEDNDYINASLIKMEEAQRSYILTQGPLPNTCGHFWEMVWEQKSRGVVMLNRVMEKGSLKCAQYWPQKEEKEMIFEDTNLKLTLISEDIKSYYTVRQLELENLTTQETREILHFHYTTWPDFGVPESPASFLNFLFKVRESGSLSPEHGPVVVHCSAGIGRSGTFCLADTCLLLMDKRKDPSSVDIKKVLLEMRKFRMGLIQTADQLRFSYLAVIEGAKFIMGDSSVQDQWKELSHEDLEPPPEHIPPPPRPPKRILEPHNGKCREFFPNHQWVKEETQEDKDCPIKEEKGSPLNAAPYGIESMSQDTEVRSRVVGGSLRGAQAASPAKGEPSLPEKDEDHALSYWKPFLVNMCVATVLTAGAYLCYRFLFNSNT
Method: Protein tyrosine phosphatase was measured under cell-free conditions by a method partially modified from the methods described in previous reports (Baba Y, et al. J Am Chem Soc 2003; 125; 9740-9749; Rice R L, et al. Biochemistry 1997; 36: 15965-15974). Human PTP1B was cloned to a pGEX-6P-3 vector having a GST tag at the NH2 terminus, and expressed in competent E. coli BL21 (DE3) suitable for transformation and protein expression. GST fusion PTP1B was affinity-purified using glutathione sepharose 4B (GE Healthcare Bio-Science KK, Tokyo, Japan). It was reacted with p-nitrophenylphosphate (p-NPP) (Sigma, St. Louis, Mo., USA) as a substrate and PTP1B activity was measured. The enzyme was pre-incubated in a reaction medium [50 mM HEPES, 1 mM EDTA, 50 mM NaCl, 1 mM dithiothreitol, pH 7.2] at 37° C. for 30 min in the presence or absence of DCP-LA at a given concentration (1-100 μM) and with or without addition of Na3VO4 which is a PTP1B inhibitor. Then, p-NPP (10 mM) was added to the reaction medium, and the mixture was incubated for 60 min. The reaction was discontinued by the addition of 0.1N NaOH. Dephosphorylated p-NPP, i.e., p-NP, was quantified at an absorbance of 405 nm by using SpectraMax PLUS384 (Molecular Devices, Sunnyvale, Calif., USA).

τ protein = τ protein phosphorylation induced by Aβ1-42 in rat hippocampus section, Western blotting; assay type: cell-based; conditions: Aβ1-42 1 μM for 3 hr, DCP-LA 100 nM, FIG. 5
Method: as §1, §2

GSK-3β = GSK-3β phosphorylation in rat hippocampus section, Western blotting; assay type: cell-based; conditions: 100 nM, 3 min, FIG. 4
Method: as §1, §2

Row | SMILES | suppression of DCP-LA/PKCε-induced Ser9 phosphorylation of GSK-3β (human recombinant PKCε; GF109203X 100 nM in the presence of DCP-LA and PKCε) | acquisition latency (5XFAD mouse) | retention latency (5XFAD mouse) | Akt activation (phosphorylation of Thr308 and Ser473 relative to total Akt) (Akt) | PTP1B inhibition (phosphatase activity, percentage of control) (Human PTP1B) | Ser9 phosphorylation of GSK-3β by PKCε (human recombinant PKCε; PKCε 1 μg/ml, DCP-LA 1-100 μM) | Ser202/Thr205 phosphorylation of τ protein induced by Aβ1-42 relative to total τ protein (τ protein) | Ser9 phosphorylation of GSK-3β relative to total GSK-3β (GSK-3β)
1 | CN(C)CCCn1cc(C2=C(c3c[nH]c4ccccc34)C(=O)NC2=O)c2ccccc21 [GF109203X, reference compound] | phosphorylation is suppressed by GF109203X | – | – | – | – | – | – | –
2 | COc1ccc2c3c1O[C@H]1C[C@@H](O)C=C[C@@]31CCN(C)C2 [galanthamine, reference compound] | – | showed no effect | showed no effect | – | – | – | – | –
3 | CCCCCC1CC1CC1CC1CCCCCCCC(=O)O (stereo not shown) [DCP-LA, 8-[2-(2-Pentyl-cyclopropylmethyl)-cyclopropyl]-octanoic acid] | – | improved extension of both latencies to nearly normal levels | improved extension of both latencies to nearly normal levels | has an action to activate Akt | inhibits PTP1B in a concentration-dependent manner | phosphorylates (inactivates) GSK-3β in the presence of PKCε | suppresses phosphorylation of τ protein induced by Aβ1-42 | phosphorylates (inactivates) GSK-3β
